Legend:
[1] = target: T1, human dopamine D3 receptor (Homo sapiens, UniProt P35462); experiment: Radioligand binding ([3H]-spiperone) to membranes of HEK-293 EBNA cells expressing human D3 receptor; settings: human D3, 0.5 nM [3H]-spiperone, HEK-293 EBNA membranes, 1 h at RT
T1 construct: expressed in transfected cells; host or cells: HEK-293 EBNA cells, transient transfection; membrane preparation
Method: (§1) The ability of the compounds to bind to the 5-HT2A, D3 and D2 receptors was determined using radioligand binding to cloned receptors selectively expressed in HEK-293 EBNA cells.
(§2) Membrane Preparation for Human D2, Human D3 and Human 5-HT2A Receptors
(§3) HEK-293 EBNA cells were transiently transfected with expression plasmids encoding for the human D2 or D3 dopamine- or for the human 5-HT2A serotonin receptor, respectively. The cells were harvested 48 h post-transfection, washed three times with cold PBS and stored at −80° C. prior to use. The pellet was suspended in cold 50 mM Tris-HCl buffer containing 10 mM EDTA (pH 7.4) and homogenized with a Polytron (Kinematica AG, Basel, Switzerland) for 20-30 sec at 12.000 rpm. After centrifugation at 48.000×g for 30 min at 4° C., the pellet was resuspended in cold 10 mM Tris-HCl buffer containing 0.1 mM EDTA (pH 7.4), homogenized, and centrifuged as above. This pellet was further resuspended in a smaller volume of ice cold 10 mM Tris-HCl buffer containing 0.1 mM EDTA (pH 7.4) and homogenized with a Polytron for 20-30 sec at 12.000 rpm. The protein content of this homogenate was determined with the Bio-Rad (Bradford) Protein Assay (Biorad Laboratories GmbH, München, Germany) according to the instructions of the manufacturer using gamma globulin as the standard. This homogenate was stored at −80° C. in aliquots and thawed immediately prior to use.
(§4) Radioligand Binding Assay Conditions
(§5) Aliquots of membrane preparations were thawed at RT, resupended in assay buffer (D2, D3: 50 mM Tris-HCl, 120 mM NaCl, 5 mM MgCl2, 1 mM EDTA, 5 mM KCl, 1.5 mM CaCl2, pH=7.4; 5-HT2A: 50 mM Tris-HCl, 10 mM MgCl2, 1 mM EGTA, pH=7.4), homogenized with a Polytron for 20-30 sec at 12.000 rpm and adjusted to a final concentration of approximately 7.5 μg protein/well (D2, D3) and 15 μg protein/well (5-HT2A), respectively.
(§6) The binding affinity (Ki) of the compounds was determined using radioligand binding. Membranes were incubated in a total volume of 200 μl with a fixed concentration of radioligand (final concentration approximately 0.7 nM [^3H]-spiperone for D2, 0.5 nM [^3H]-spiperone for D3, and 1.1 nM [^3H]-ketanserin for 5-HT2A) and ten concentrations of test compound in ranging between 10 μM-0.1 nM for 1 h at RT. At the end of the incubation, the reaction mixtures were filtered on to unifilter 96-well white microplates with bonded GF/C filters (Packard BioScience, Zurich, Switzerland; preincubated for 1 h in 0.1% polyethylenimine (PEI) in assay buffer) with a Filtermate 196 harvester (Packard BioScience) and washed 3 times with cold assay buffer. The nonspecific binding was determined with equally composed reaction mixtures in the presence of 10 μM unlabelled spiperone. Per well 45 μl of Microscint 40 (Perkin Elmer, Schwerzenbach, Switzerland) was added, plates for sealed, shaken for 20 min and counted for 3 min on a Topcount Microplate Scintillation Counter (Canberra Packard SA, Zurich, Switzerland) with quenching correction.
(§7) The CPM value for each duplicate of a concentration of competing compound was averaged (y1), then the % specific binding was calculated according to the equation (((y1−non-specific)/(total binding-non-specific))×100). Graphs were plotted with the % specific binding using XLfit, a curve fitting program that iteratively plots the data using Levenburg Marquardt algorithm. The single site competition analysis equation used was y=A+((B−A)/(1+((x/C)^D))), where y is the % specific binding, A is the minimum y, B is the maximum y, C is the IC50, x is the log10 of the concentration of the competing compound and D is the slope of the curve (the Hill Coefficient). From these curves the IC50 (inhibition concentration at which 50% specific binding of the radioligand was displaced) and Hill coefficient were determined. […]

[2] = target: T2, human serotonin 5-HT2A receptor (Homo sapiens, UniProt P28223); experiment: Radioligand binding ([3H]-ketanserin) to membranes of HEK-293 EBNA cells expressing human 5-HT2A receptor; settings: 1.1 nM [3H]-ketanserin, HEK-293 EBNA membranes, 1 h at RT
T2 construct: expressed in transfected cells; host or cells: HEK-293 EBNA cells, transient transfection; membrane preparation
Method: as §1, §2, §3, §4, §5, §6, §7

[3] = target: T3, human dopamine D2 receptor (Homo sapiens, UniProt P14416); experiment: Radioligand binding ([3H]-spiperone) to membranes of HEK-293 EBNA cells expressing human D2 receptor; settings: human D2, 0.7 nM [3H]-spiperone, HEK-293 EBNA membranes, 1 h at RT
T3 construct: expressed in transfected cells; host or cells: HEK-293 EBNA cells, transient transfection; membrane preparation
Method: as §1, §2, §3, §4, §5, §6, §7

T2 sequence (P28223 whole entry): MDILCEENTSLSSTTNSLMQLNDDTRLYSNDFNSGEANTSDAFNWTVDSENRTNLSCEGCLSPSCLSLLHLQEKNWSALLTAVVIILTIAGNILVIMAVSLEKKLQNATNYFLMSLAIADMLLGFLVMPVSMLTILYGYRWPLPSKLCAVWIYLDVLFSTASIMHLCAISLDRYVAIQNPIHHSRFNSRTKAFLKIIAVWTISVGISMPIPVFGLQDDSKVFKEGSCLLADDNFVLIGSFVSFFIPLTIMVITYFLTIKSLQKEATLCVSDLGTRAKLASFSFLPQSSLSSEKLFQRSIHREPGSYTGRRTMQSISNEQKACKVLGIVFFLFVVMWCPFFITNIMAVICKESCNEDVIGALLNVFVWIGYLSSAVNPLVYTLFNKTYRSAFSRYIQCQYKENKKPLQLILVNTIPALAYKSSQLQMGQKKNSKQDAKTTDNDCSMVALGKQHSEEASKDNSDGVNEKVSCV
T1 sequence (P35462 whole entry): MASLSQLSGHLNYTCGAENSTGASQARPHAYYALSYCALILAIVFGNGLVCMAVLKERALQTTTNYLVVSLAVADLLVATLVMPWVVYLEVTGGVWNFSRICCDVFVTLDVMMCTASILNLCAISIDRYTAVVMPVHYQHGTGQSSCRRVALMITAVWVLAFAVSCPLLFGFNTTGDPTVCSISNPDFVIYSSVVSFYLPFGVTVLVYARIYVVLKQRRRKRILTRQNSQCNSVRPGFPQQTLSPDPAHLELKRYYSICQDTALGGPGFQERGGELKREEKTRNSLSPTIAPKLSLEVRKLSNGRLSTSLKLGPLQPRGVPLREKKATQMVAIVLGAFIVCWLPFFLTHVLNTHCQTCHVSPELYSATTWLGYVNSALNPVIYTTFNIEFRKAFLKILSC
T3 sequence (P14416 whole entry): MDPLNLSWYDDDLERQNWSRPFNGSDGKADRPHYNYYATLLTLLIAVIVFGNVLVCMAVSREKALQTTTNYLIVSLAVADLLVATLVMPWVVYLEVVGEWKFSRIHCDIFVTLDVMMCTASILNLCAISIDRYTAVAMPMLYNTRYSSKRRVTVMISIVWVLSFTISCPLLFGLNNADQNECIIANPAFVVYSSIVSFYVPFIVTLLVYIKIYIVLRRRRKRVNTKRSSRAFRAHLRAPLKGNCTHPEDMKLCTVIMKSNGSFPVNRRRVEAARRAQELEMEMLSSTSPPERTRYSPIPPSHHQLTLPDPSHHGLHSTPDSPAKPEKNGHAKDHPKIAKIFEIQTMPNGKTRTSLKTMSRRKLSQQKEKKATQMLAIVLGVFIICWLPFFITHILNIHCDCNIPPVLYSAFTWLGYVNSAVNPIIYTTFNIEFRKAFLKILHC

Structure (SMILES)	Ki [1] [nM]	Ki [2] [nM]	Ki [3] [nM]
COC(CC(=O)N[C@H]1CC[C@H](CCN2CCN(c3noc4ccc(F)cc34)CC2)CC1)OC [Example 26, N-trans-(4-{2-[4-(5-Fluoro-benzo[d]isoxazol-3-yl)-piperazin-1-yl]-ethyl}-cyclohexyl)-3,3-dimethoxy-propionamide]	2.12	15.9	761
COC[C@H]1C[C@H](CC(=O)N[C@H]2CC[C@H](CCN3CCN(c4noc5ccc(F)cc45)CC3)CC2)C1 [Example 27, N-trans-(4-{2-[4-(5-Fluoro-benzo[d]isoxazol-3-yl)-piperazin-1-yl]-ethyl}-cyclohexyl)-2-trans-(3-methoxymethyl-cyclobutyl)-acetamide]	10	26.2	718
COC(CCC(=O)N[C@H]1CC[C@H](CCN2CCN(c3noc4ccc(F)cc34)CC2)CC1)OC [Example 28, N-trans-(4-{2-[4-(5-Fluoro-benzo[d]isoxazol-3-yl)-piperazin-1-yl]-ethyl}-cyclohexyl)-4,4-dimethoxy-butyramide]	8.78	22.8	918
COCCC(=O)N[C@H]1CC[C@H](CCN2CCN(c3noc4cc(Cl)ccc34)CC2)CC1 [Example 29, N-trans-(4-{2-[4-(6-Chloro-benzo[d]isoxazol-3-yl)-piperazin-1-yl]-ethyl}-cyclohexyl)-3-methoxy-propionamide]	8.68	8.59	490
CC(=O)N[C@H]1CC[C@H](CCN2CCN(c3noc4cc(Cl)ccc34)CC2)CC1 [Example 30, N-trans-(4-{2-[4-(6-Chloro-benzo[d]isoxazol-3-yl)-piperazin-1-yl]-ethyl}-cyclohexyl)-acetamide]	9.18	8.65	675
CO[C@H]1CC[C@H](CC(=O)N[C@H]2CC[C@H](CCN3CCN(c4noc5cc(Cl)ccc45)CC3)CC2)CC1 [Example 31, N-trans-(4-{2-[4-(6-Chloro-benzo[d]isoxazol-3-yl)-piperazin-1-yl]-ethyl}-cyclohexyl)-2-trans-(4-methoxy-cyclohexyl)-acetamide]	8.89	2.9	4990
O=C(N[C@H]1CC[C@H](CCN2CCN(c3noc4cc(Cl)ccc34)CC2)CC1)C1CCOCC1 [Example 32, Tetrahydro-pyran-4-carboxylic acid N-trans-(4-{2-[4-(6-chloro-benzo[d]isoxazol-3-yl)-piperazin-1-yl]-ethyl}-cyclohexyl)-amide]	15.9	2.37	3040
O=C(N[C@H]1CC[C@H](CCN2CCN(c3noc4cc(Cl)ccc34)CC2)CC1)C1CCOC1 (stereo partly drawn) [Example 34, Tetrahydro-furan-3-carboxylic acid N-trans-(4-{2-[4-(6-chloro-benzo[d]isoxazol-3-yl)-piperazin-1-yl]-ethyl}-cyclohexyl)-amide]	18.8	10.4	193
O=C(CC1CCCCO1)N[C@H]1CC[C@H](CCN2CCN(c3noc4cc(Cl)ccc34)CC2)CC1 (stereo partly drawn) [Example 35, N-trans-(4-{2-[4-(6-Chloro-benzo[d]isoxazol-3-yl)-piperazin-1-yl]-ethyl}-cyclohexyl)-2-(tetrahydro-pyran-2-yl)-acetamide]	17.2	4.8	899
COC(C)CC(=O)N[C@H]1CC[C@H](CCN2CCN(c3noc4cc(Cl)ccc34)CC2)CC1 (stereo partly drawn) [Example 37, N-trans-(4-{2-[4-(6-Chloro-benzo[d]isoxazol-3-yl)-piperazin-1-yl]-ethyl}-cyclohexyl)-3-methoxy-butyramide]	14.9	7.32	350
O=C(N[C@H]1CC[C@H](CCN2CCN(c3noc4cc(Cl)ccc34)CC2)CC1)C1(O)CC1 [Example 38, 1-Hydroxy-cyclopropanecarboxylic acid N-trans-(4-{2-[4-(6-chloro-benzo[d]isoxazol-3-yl)-piperazin-1-yl]-ethyl}-cyclohexyl)-amide]	12.5	8.19	314
COC1(C)CCC(CC(=O)N[C@H]2CC[C@H](CCN3CCN(c4noc5cc(Cl)ccc45)CC3)CC2)CC1 (stereo partly drawn) [Example 39, N-trans-(4-{2-[4-(6-Chloro-benzo[d]isoxazol-3-yl)-piperazin-1-yl]-ethyl}-cyclohexyl)-2-(4-methoxy-4-methyl-cyclohexyl)-acetamide]	23.4	4.14	3800
O=C(CC1CCOCC1)N[C@H]1CC[C@H](CCN2CCN(c3noc4cc(Cl)ccc34)CC2)CC1 [Example 40, N-trans-(4-{2-[4-(6-Chloro-benzo[d]isoxazol-3-yl)-piperazin-1-yl]-ethyl}-cyclohexyl)-2-(tetrahydro-pyran-4-yl)-acetamide]	7.02	11.3	1080
CCC(=O)N[C@H]1CC[C@H](CCN2CCN(c3noc4cc(Cl)ccc34)CC2)CC1 [Example 41, N-trans-(4-{2-[4-(6-Chloro-benzo[d]isoxazol-3-yl)-piperazin-1-yl]-ethyl}-cyclohexyl)-propionamide]	8.7	10.9	675
O=C(CO)N[C@H]1CC[C@H](CCN2CCN(c3noc4cc(Cl)ccc34)CC2)CC1 [Example 42, N-trans-(4-{2-[4-(6-Chloro-benzo[d]isoxazol-3-yl)-piperazin-1-yl]-ethyl}-cyclohexyl)-2-hydroxy-acetamide]	11	6.99	809
O=C(C[C@H]1CC[C@H](O)CC1)N[C@H]1CC[C@H](CCN2CCN(c3noc4cc(Cl)ccc34)CC2)CC1 [Example 43, N-trans-(4-{2-[4-(6-Chloro-benzo[d]isoxazol-3-yl)-piperazin-1-yl]-ethyl}-cyclohexyl)-2-trans-(4-hydroxy-cyclohexyl)-acetamide]	12.5	3.22	2920
CC(C)(O)CC(=O)N[C@H]1CC[C@H](CCN2CCN(c3noc4cc(Cl)ccc34)CC2)CC1 [Example 44, N-trans-(4-{2-[4-(6-Chloro-benzo[d]isoxazol-3-yl)-piperazin-l-yl]-ethyl}-cyclohexyl)-3-hydroxy-3-methyl-butyramide]	10.1	6.59	325
C[C@H](O)CC(=O)N[C@H]1CC[C@H](CCN2CCN(c3noc4cc(Cl)ccc34)CC2)CC1 [Example 45, (S)-N-(4-{2-[4-(6-Chloro-benzo[d]isoxazol-3-yl)-piperazin-1-yl]-ethyl}-cyclohexyl)-3-hydroxy-butyramide]	15.8	9.21	356
O=C(N[C@H]1CC[C@H](CCN2CCN(c3noc4cc(Cl)ccc34)CC2)CC1)[C@H]1CCOC1 [Example 46, (S)-Tetrahydro-furan-3-carboxylic acid (4-{2-[4-(6-chloro-benzo[d]isoxazol-3-yl)-piperazin-1-yl]-ethyl}-cyclohexyl)-amide]	20.9	10.9	488
O=C(CC1COC1)N[C@H]1CC[C@H](CCN2CCN(c3noc4cc(Cl)ccc34)CC2)CC1 [Example 47, N-trans-(4-{2-[4-(6-Chloro-benzo[d]isoxazol-3-yl)-piperazin-1-yl]-ethyl}-cyclohexyl)-2-oxetan-3-yl-acetamide]	8.14	6.59	238

Source: US7858630B2, “D3 and 5-HT2A receptor modulators” (Hoffmann-La Roche Inc., priority 2008, dated 2010)
